Measured values taken from ChEMBL document CHEMBL3045820, “Discovery of a novel histone deacetylase 8 inhibitor by virtual screening” (Med Chem Res, 2012).

Biological target: T1, Histone deacetylase 8 (Homo sapiens, UniProt Q9BY41)
T1 sequence (Q9BY41 whole entry): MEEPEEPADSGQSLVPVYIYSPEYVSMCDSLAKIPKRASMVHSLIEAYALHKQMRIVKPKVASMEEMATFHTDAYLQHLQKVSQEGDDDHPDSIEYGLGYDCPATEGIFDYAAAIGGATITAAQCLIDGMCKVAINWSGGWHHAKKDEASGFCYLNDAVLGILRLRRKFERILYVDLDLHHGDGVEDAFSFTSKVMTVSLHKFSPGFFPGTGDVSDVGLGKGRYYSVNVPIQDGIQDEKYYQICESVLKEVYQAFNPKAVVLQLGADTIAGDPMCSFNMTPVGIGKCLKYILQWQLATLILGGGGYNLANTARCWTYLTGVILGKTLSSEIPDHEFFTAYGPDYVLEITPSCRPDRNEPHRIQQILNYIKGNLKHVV
Experiment: Inhibition of HDAC8 (unknown origin) expressed in Escherichia coli using Boc-Lys (acetyl)-AMC as substrate incubated for 5 min prior to substrate addition measured after 30 min by fluorescence assay

Question: With `COc1cc(C(=O)NN)ccc1COc1ccc(Cl)c(C)c1` as the compound, how does the IC50 read?
Answer: The IC50 was 1.6 µM.
